Test results: ChEMBL document CHEMBL4834496 (ACS Med Chem Lett, 2021)

Columns and labels:
[1] = molecular target: T1, Botulinum neurotoxin type A (Clostridium botulinum, UniProt P0DPI0); test: Inhibition of Clostridium botulinum BoNT/A light chain
[2] = molecular target: T1, Botulinum neurotoxin type A; test: Inhibition of Clostridium botulinum BoNT/A using SNAP-25 (66-mer) as substrate by LC-MS analysis

T1 sequence (P0DPI0 2-448 limits assumed): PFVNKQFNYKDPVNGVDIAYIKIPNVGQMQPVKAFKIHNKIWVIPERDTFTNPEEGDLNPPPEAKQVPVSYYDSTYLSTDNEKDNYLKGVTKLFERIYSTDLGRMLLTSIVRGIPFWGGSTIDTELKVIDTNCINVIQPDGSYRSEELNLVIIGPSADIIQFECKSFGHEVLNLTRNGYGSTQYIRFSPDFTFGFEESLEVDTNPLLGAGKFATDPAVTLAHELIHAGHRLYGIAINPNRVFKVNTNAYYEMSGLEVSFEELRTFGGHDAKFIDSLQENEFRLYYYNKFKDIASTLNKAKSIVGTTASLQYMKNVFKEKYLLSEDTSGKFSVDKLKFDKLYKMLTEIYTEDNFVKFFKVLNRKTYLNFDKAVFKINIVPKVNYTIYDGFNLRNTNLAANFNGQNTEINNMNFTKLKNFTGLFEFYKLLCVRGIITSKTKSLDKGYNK

| SMILES | Ki [1] | IC50 [2] |
| --- | --- | --- |
| N=C(N)NCCC[C@H](N)C(=O)NO | 60 µM | – |
| O=C(C[C@H](CCO)c1ccc(Cl)cc1)NO | – | 36 µM |
| O=C(C[C@H](CCO)c1ccc(Cl)cc1Cl)NO | – | 21 µM |
| O=C(C[C@@H](CCO)c1ccc(Cl)cc1Cl)NO | – | 1 µM |
| O=C(C[C@@H](CCO)c1ccc(Cl)cc1)NO | – | 8 µM |
